Reference: ChEMBL document CHEMBL1201862, “PubChem BioAssay data set” (2004)
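Step 1: Grow cells in 96-well plates. Step 2: Expose to compound for 48 hours at 5 concentrations. Step 3: Interpolate endpoints linearly; if unreached, use highest concentration. Here, GI50 denotes the concentration required for 50% inhibition of growth.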 Calls of active or inactive are those of the source. Rule as the data show it: active = GI50 up to about 1.1 µM and inactive = higher.

What was measured:
Assay in all cases: growth of human tumour cells (NCI), 48 h
NCI-H226 = test system: NCI-H226
HCT-15 = test system: HCT-15
HL-60 = test system: HL-60
A549 = test system: A549
Malme-3M = test system: Malme-3M
UACC-257 = test system: UACC-257
RXF 393 = test system: RXF 393
SNB-75 = test system: SNB-75
SW-620 = test system: SW-620
SK-MEL-28 = test system: SK-MEL-28
A498 = test system: A498
RPMI-8226 = test system: RPMI-8226
UACC-62 = test system: UACC-62
MDA-MB-435 = test system: MDA-MB-435
SF-268 = test system: SF-268
Hs-578T = test system: Hs-578T
U-251 = test system: U-251
NCI/ADR-RES = test system: NCI/ADR-RES
786-0 = test system: 786-0
KM12 = test system: KM12
DU-145 = test system: DU-145
MDA-MB-231 = test system: MDA-MB-231
HOP-92 = test system: HOP-92
ACHN = test system: ACHN
OVCAR-3 = test system: OVCAR-3
SF-295 = test system: SF-295
TK-10 = test system: TK-10
M14 = test system: M14
OVCAR-4 = test system: OVCAR-4
NCI-H23 = test system: NCI-H23
SN12C = test system: SN12C
COLO 205 = test system: COLO 205
CAKI-1 = test system: CAKI-1
MOLT-4 = test system: MOLT-4
OVCAR-5 = test system: OVCAR-5
PC-3 = test system: PC-3
SK-MEL-5 = test system: SK-MEL-5
OVCAR-8 = test system: OVCAR-8
LOX IMVI = test system: LOX IMVI
HT-29 = test system: HT-29
UO-31 = test system: UO-31
K562 = test system: K562
MCF7 = test system: MCF7
SR = test system: SR
HCT-116 = test system: HCT-116
SF-539 = test system: SF-539
NCI-H522 = test system: NCI-H522
NCI-H460 = test system: NCI-H460
CCRF-CEM = test system: CCRF-CEM
SNB-19 = test system: SNB-19
SK-MEL-2 = test system: SK-MEL-2
IGROV-1 = test system: IGROV-1
MDA-N = test system: MDA-N
EKVX = test system: EKVX

Measured: GI50

C=C/C(C)=C\CC1[C@](C)(O)CC[C@H]2C(C)(C)C(O)CC[C@]12C (some centres undefined)
> 100 µM: HCT-15
inactive: NCI-H226 > 100 µM | HL-60 17.7 µM | A549 > 100 µM | Malme-3M > 100 µM | UACC-257 > 100 µM | RXF 393 95.1 µM | SNB-75 > 100 µM | SW-620 > 100 µM | SK-MEL-28 > 100 µM | A498 > 100 µM | RPMI-8226 42.6 µM | UACC-62 > 100 µM | MDA-MB-435 > 100 µM | SF-268 > 100 µM | Hs-578T > 100 µM | U-251 > 100 µM | NCI/ADR-RES > 100 µM | 786-0 > 100 µM | KM12 > 100 µM | DU-145 > 100 µM | MDA-MB-231 > 100 µM | HOP-92 > 100 µM | ACHN > 100 µM | OVCAR-3 92.3 µM | SF-295 > 100 µM | TK-10 > 100 µM | M14 > 100 µM | OVCAR-4 > 100 µM | NCI-H23 55.8 µM | SN12C > 100 µM | COLO 205 > 100 µM | CAKI-1 > 100 µM | MOLT-4 33.8 µM | OVCAR-5 > 100 µM | PC-3 70 µM | SK-MEL-5 84.1 µM | OVCAR-8 > 100 µM | LOX IMVI > 100 µM | HT-29 44.3 µM | UO-31 > 100 µM | K562 34.4 µM | MCF7 70.1 µM | SR 40.8 µM | HCT-116 54.8 µM | SF-539 > 100 µM | NCI-H522 91.4 µM | NCI-H460 78.2 µM | CCRF-CEM 27.5 µM | SNB-19 > 100 µM | SK-MEL-2 > 100 µM | IGROV-1 > 100 µM | MDA-N > 100 µM | EKVX > 100 µM
